BindingDB's records for doi:10.1021/jm301755q (University Health Network, 2013)

Legend:
[1] = biological target: Protein-arginine deiminase type-4 (Homo sapiens) (UniProt Q9UM07); assay: Inhibition of PAD4 (unknown origin) at 52 degC
[2] = biological target: Protein-arginine deiminase type-4 (Homo sapiens) (UniProt Q9UM07); assay: Inhibition of PAD4 (unknown origin) at 37 degC

Sequence of Protein-arginine deiminase type-4 (Homo sapiens) (Q9UM07 whole entry, looked up): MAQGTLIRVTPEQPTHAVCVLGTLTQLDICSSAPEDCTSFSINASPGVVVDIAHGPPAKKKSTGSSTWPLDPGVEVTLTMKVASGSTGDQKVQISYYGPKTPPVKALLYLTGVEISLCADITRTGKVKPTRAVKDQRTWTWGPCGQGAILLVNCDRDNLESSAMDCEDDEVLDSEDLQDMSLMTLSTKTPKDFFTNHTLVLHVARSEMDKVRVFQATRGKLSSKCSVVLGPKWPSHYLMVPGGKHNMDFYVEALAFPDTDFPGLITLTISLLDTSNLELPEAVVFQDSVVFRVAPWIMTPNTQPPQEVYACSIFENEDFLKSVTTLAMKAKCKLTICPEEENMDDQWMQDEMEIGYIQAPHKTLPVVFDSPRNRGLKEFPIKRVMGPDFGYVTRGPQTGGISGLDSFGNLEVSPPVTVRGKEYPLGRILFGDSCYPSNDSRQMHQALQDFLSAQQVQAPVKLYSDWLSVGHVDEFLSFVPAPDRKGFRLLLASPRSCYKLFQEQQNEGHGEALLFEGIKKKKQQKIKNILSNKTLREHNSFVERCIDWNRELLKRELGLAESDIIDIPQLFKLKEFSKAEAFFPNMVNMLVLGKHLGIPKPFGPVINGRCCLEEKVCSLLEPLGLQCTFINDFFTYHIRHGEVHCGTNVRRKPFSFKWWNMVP

SMILES	IC50 [1] [µM]	Ki [1] [µM]	IC50 [2] [µM]	Ki [2] [µM]
CC(=NN=C(N)N)C1=CC(C)(C)CCC1	790	69	1460	127
CC1CCc2c(sc3ncn(N)c(=N)c23)C1 (stereo unspecified)	757	66	1760	153
CC1(C)NC(=O)N(CN2CCNCC2)C1=O	4270	371	1380	131
C[C@H]1C(=O)Nc2ccc(-c3csc(N=C(N)N)n3)cc21	2650	231	1320	115
